The values that follow come from ChEMBL document CHEMBL1201862, “PubChem BioAssay data set” (2004).

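These data come from cells grown in 96-well plates and exposed to compound for 48 hours at five concentrations. The concentration for 50% growth inhibition is given as GI50.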 Calls of active or inactive are those of the source. Cut-off read from the data, not from the text of the source: active = GI50 up to about 1.1 µM and inactive = higher.

Some test systems named below: 786-0; A549; HCC 2998; HL-60; HOP-62; HOP-92; K562; LOX IMVI; M14; Malme-3M; NCI-H460; NCI-H522; OVCAR-3; RPMI-8226; SF-295; SK-MEL-28; SK-MEL-2; UACC-257; UO-31; T47D.
Assay in all cases: inhibition of tumour cell growth, NCI panel, 48 h

`Nc1ncc(CN2CCCC2)c(-c2ccccc2O)n1`: the GI50 is > 750 µM (inactive) in the experiment with 786-0; > 750 µM (inactive) with A549; > 750 µM (inactive) with HCC 2998; 4.31 µM (inactive) in the experiment with HL-60; > 750 µM (inactive) in the experiment on HOP-62; > 750 µM (inactive) with HOP-92. Also, the GI50 with K562 is 4.51 µM (inactive); in the experiment on LOX IMVI, 38.4 µM (inactive); in the experiment with M14, > 750 µM (inactive); with Malme-3M, > 750 µM (inactive); with NCI-H460, > 750 µM (inactive); in the experiment on NCI-H522 it was > 750 µM (inactive). Moreover, the GI50 was > 750 µM (inactive) in the experiment on OVCAR-3; > 750 µM (inactive) in the experiment on RPMI-8226; > 750 µM (inactive) in the experiment on SF-295; > 750 µM (inactive) in the experiment on SK-MEL-28; > 100 µM (inactive) in the experiment on SK-MEL-2; > 750 µM (inactive) in the experiment on UACC-257. The GI50 in the experiment on UO-31 was > 750 µM (inactive).

In the case of `CC(C)C12C=CC(C)(CC1)n1c(=O)c3cc4ccccc4cc3c(=O)n12` (stereo not given), the GI50 is 55.3 µM (inactive) in the experiment with 786-0; 45.4 µM (inactive) in the experiment on A549; 33.7 µM (inactive) in the experiment on HCC 2998; 34 µM (inactive) in the experiment with HL-60; > 100 µM (inactive) in the experiment with HOP-62; 38.5 µM (inactive) in the experiment on HOP-92. Besides, the GI50 in the experiment with K562 was 34.4 µM (inactive); in the experiment on LOX IMVI, 41.9 µM (inactive); in the experiment with M14, 76.4 µM (inactive); in the experiment with Malme-3M, 42.9 µM (inactive); with NCI-H460 it was 45.5 µM (inactive); with NCI-H522, 29.3 µM (inactive). The GI50 in the experiment on OVCAR-3 was 46.2 µM (inactive); in the experiment on RPMI-8226, 36.3 µM (inactive); with SF-295, 73.5 µM (inactive); in the experiment on SK-MEL-28, > 100 µM (inactive); in the experiment with SK-MEL-2, 48.3 µM (inactive); with UACC-257, 63.1 µM (inactive). For the same compound, the GI50 with UO-31 was 24.9 µM (inactive).

On to `C=CCCCCCCCCC(=O)NS(=O)(=O)c1ccccc1`, for which the GI50 with 786-0 is > 100 µM (inactive); with A549 it was 57.7 µM (inactive); with HCC 2998, > 100 µM (inactive); in the experiment with HL-60, 44.7 µM (inactive); in the experiment on HOP-62, > 100 µM (inactive); with HOP-92, 56.9 µM (inactive). The GI50 was 54.5 µM (inactive) in the experiment on K562; > 100 µM (inactive) in the experiment on LOX IMVI; > 100 µM (inactive) in the experiment on M14; > 100 µM (inactive) in the experiment on Malme-3M; > 100 µM (inactive) in the experiment on NCI-H460; 55.3 µM (inactive) in the experiment on NCI-H522. Besides, the GI50 in the experiment on OVCAR-3 was > 100 µM (inactive); in the experiment with RPMI-8226, 35.8 µM (inactive); in the experiment with SF-295, > 100 µM (inactive); with SK-MEL-28, 99.3 µM (inactive); with SK-MEL-2, > 100 µM (inactive); with UACC-257, > 100 µM (inactive). The GI50 in the experiment on UO-31 was 30.7 µM (inactive).

`COc1ccc(C=O)c([N+](=O)[O-])c1`: the GI50 is 66.2 µM (inactive) with 786-0; > 100 µM (inactive) in the experiment on A549; > 10 µM (inactive) in the experiment on HCC 2998; 4.2 µM (inactive) in the experiment on HL-60; 40.7 µM (inactive) in the experiment with HOP-62; 81.3 µM (inactive) in the experiment on HOP-92. Besides, the GI50 is 3.71 µM (inactive) with K562; 22.1 µM (inactive) in the experiment on LOX IMVI; 38.1 µM (inactive) with M14; 21.5 µM (inactive) in the experiment on Malme-3M; 37.5 µM (inactive) with NCI-H460; > 100 µM (inactive) in the experiment on NCI-H522. The GI50 with OVCAR-3 was 27.9 µM (inactive); with RPMI-8226, 23.1 µM (inactive); in the experiment on SF-295 it was 21 µM (inactive); in the experiment on SK-MEL-28 it was > 100 µM (inactive); in the experiment on SK-MEL-2, 35.2 µM (inactive); in the experiment with UACC-257, 37.7 µM (inactive). Moreover, the GI50 with UO-31 was 37.7 µM (inactive).

For `S=c1sc2c(Cl)nc(Cl)nc2n1-c1ccccc1`, the GI50 in the experiment on 786-0 was > 100 µM (inactive); in the experiment on A549, > 100 µM (inactive); in the experiment with HCC 2998, 52.4 µM (inactive); in the experiment with HL-60 it was 23.5 µM (inactive); in the experiment on HOP-62 it was 59.6 µM (inactive); with HOP-92, > 100 µM (inactive). Besides, the GI50 in the experiment on K562 is 29 µM (inactive); in the experiment with LOX IMVI, 34.8 µM (inactive); in the experiment with M14, 21.1 µM (inactive); with Malme-3M, 8.11 µM (inactive); with NCI-H460, > 100 µM (inactive); in the experiment on NCI-H522, 11.5 µM (inactive). Also, the GI50 with OVCAR-3 was 22.9 µM (inactive); in the experiment on RPMI-8226, > 100 µM (inactive); with SF-295, > 100 µM (inactive); in the experiment on SK-MEL-28, 15.6 µM (inactive); with SK-MEL-2 it was 31.7 µM (inactive); in the experiment on UACC-257, 53 µM (inactive). For the same compound, the GI50 in the experiment with UO-31 was > 100 µM (inactive).

For the compound `Nc1nc(N)c2ncn(CCCC(c3ccccc3)P(=O)(O)O)c2n1` (stereo not given), the GI50 in the experiment on 786-0, in the experiment with A549, in the experiment on HCC 2998, with HL-60, in the experiment on HOP-62 and in the experiment on HOP-92 was > 100 µM (inactive) in each case. Further, the GI50 in the experiment with K562, in the experiment with LOX IMVI, in the experiment on M14, in the experiment on Malme-3M, in the experiment on NCI-H460 and with NCI-H522 was > 100 µM (inactive) each time. Besides, the GI50 with OVCAR-3, in the experiment on RPMI-8226, with SF-295, with SK-MEL-28, in the experiment on SK-MEL-2 and in the experiment on UACC-257 was > 100 µM (inactive) each time. For the same compound, in the experiment on UO-31, the GI50 is > 100 µM (inactive).

As to `CCCCCCCCCCCCCCCC(=O)OCC1OC(n2cc(F)c(=O)[nH]c2=O)C(NC(=O)N(CCCl)N=O)C(O)C1O` (stereo not given), the GI50 with 786-0 is 0.166 µM (active); in the experiment with A549, 0.767 µM (active); in the experiment on HCC 2998, 2.71 µM (inactive); in the experiment on HL-60 it was 0.428 µM (active); in the experiment with HOP-62, 0.354 µM (active); in the experiment on HOP-92, 3.65 µM (inactive). In addition, the GI50 in the experiment on K562 was 1.76 µM (inactive); with LOX IMVI, 0.157 µM (active); with M14, 4.06 µM (inactive); in the experiment with Malme-3M, 4.47 µM (inactive); in the experiment on NCI-H460, 0.152 µM (active); in the experiment with NCI-H522 it was 5.15 µM (inactive). The GI50 was 8.04 µM (inactive) with OVCAR-3; 3.06 µM (inactive) in the experiment with RPMI-8226; 0.156 µM (active) in the experiment on SF-295; 2.37 µM (inactive) with SK-MEL-28; 1.35 µM (inactive) in the experiment on SK-MEL-2; 5.94 µM (inactive) in the experiment with UACC-257. Also, in the experiment with UO-31, the GI50 was 12.3 µM (inactive).

As for `CN1C(=O)C(CCO)(C(C)(C)C)c2ccccc21` (stereo not given), the GI50 in the experiment with 786-0, with A549, with HCC 2998, in the experiment on HL-60, in the experiment with HOP-62 and in the experiment with HOP-92 was > 100 µM (inactive) each time. Moreover, the GI50 in the experiment with K562, with LOX IMVI, with M14, with NCI-H460, with OVCAR-3 and in the experiment with RPMI-8226 was > 100 µM (inactive) throughout. For the same compound, the GI50 with SF-295, with SK-MEL-28, in the experiment with SK-MEL-2, with T47D, in the experiment on UACC-257 and in the experiment with UO-31 was > 100 µM (inactive) each time.

As for `CC(=O)NNc1nc(C)c(C(=O)NNC(=O)C(=O)Nc2ccc(C)cc2[N+](=O)[O-])s1`, the GI50 with 786-0, in the experiment with A549, in the experiment on HCC 2998, with HL-60, with HOP-62 and with HOP-92 was > 100 µM (inactive) in each case. Moreover, the GI50 with K562 is > 100 µM (inactive); in the experiment on LOX IMVI it was 56.4 µM (inactive); in the experiment on M14 it was > 100 µM (inactive); in the experiment on Malme-3M, > 100 µM (inactive); in the experiment on NCI-H460 it was > 100 µM (inactive); in the experiment on NCI-H522, 20.7 µM (inactive). The GI50 in the experiment with OVCAR-3 is 47.8 µM (inactive); in the experiment with RPMI-8226 it was > 100 µM (inactive); in the experiment on SF-295, > 100 µM (inactive); with SK-MEL-28 it was > 100 µM (inactive); in the experiment on SK-MEL-2 it was > 100 µM (inactive); with UACC-257, > 100 µM (inactive). Also, the GI50 with UO-31 is > 100 µM (inactive).

As to `COc1ccc(C2Oc3c(cc(O)c(OC)c3C)[C@@H]2C)cc1OC` (stereo not given in full), the GI50 was > 100 µM (inactive) in the experiment on 786-0; > 100 µM (inactive) in the experiment on A549; > 100 µM (inactive) in the experiment on HCC 2998; 50.2 µM (inactive) with HL-60; > 100 µM (inactive) in the experiment with HOP-62; 43 µM (inactive) with HOP-92. Moreover, the GI50 is 47.9 µM (inactive) in the experiment with K562; 82.6 µM (inactive) in the experiment on LOX IMVI; > 100 µM (inactive) in the experiment on M14; > 100 µM (inactive) with Malme-3M; > 100 µM (inactive) in the experiment with NCI-H460; 34.4 µM (inactive) with NCI-H522. The GI50 in the experiment with OVCAR-3 was > 100 µM (inactive); in the experiment on RPMI-8226, 4.44 µM (inactive); in the experiment with SF-295, > 100 µM (inactive); in the experiment on SK-MEL-28, > 100 µM (inactive); in the experiment with SK-MEL-2 it was > 100 µM (inactive); in the experiment on UACC-257 it was 45 µM (inactive). Also, the GI50 in the experiment with UO-31 is 66.5 µM (inactive).

As to `O=C(/C=C/c1cccs1)c1ccc(Cl)s1`, the GI50 was > 10 µM (inactive) in the experiment with 786-0; 42.9 µM (inactive) with A549; 18.7 µM (inactive) with HCC 2998; 22.1 µM (inactive) in the experiment with HL-60; > 100 µM (inactive) in the experiment with HOP-62; 31.3 µM (inactive) with K562. The GI50 was 38.8 µM (inactive) in the experiment on M14; > 100 µM (inactive) with Malme-3M; 72.8 µM (inactive) with NCI-H460; 17.5 µM (inactive) in the experiment with RPMI-8226; 37.8 µM (inactive) in the experiment on SF-295; 29.2 µM (inactive) in the experiment on SK-MEL-28. Also, the GI50 with SK-MEL-2 is > 100 µM (inactive); in the experiment with T47D, 35.1 µM (inactive); in the experiment with UACC-257, 39.8 µM (inactive); in the experiment with UO-31 it was 19.9 µM (inactive).
